Values quoted from earlier work as cited in patent publication US6361800B1 (Cooper Concepts, Inc., priority 2000, dated 2002).
Like-named read-outs stand apart in the source and are kept apart here.

Conditions: 100 I.U. taken for two years or longer

## vitamin E
39,910 male health professionals
  reduced deaths of coronary artery disease: 37%
87,245 nurses
  reduced deaths of coronary artery disease: 40%
